Data taken from ChEMBL document CHEMBL5226289, “Discovery of natural anti-inflammatory alkaloids: Potential leads for the drug discovery for the treatment of inflammation” (Eur J Med Chem, 2021).
≈ marks a conversion by molar mass, not a printed value. Values belong to the compound of their own block, whether it stands above or below them.

Legend:
Rattus norvegicus [1] = experiment: Antiinflammatory activity in Wistar albino rat assessed as inhibition of carrageenan-induced paw edema at 20 mg/kg, po preadministered for 1 hrs followed by carrageenan administration and measured upto 10 hrs by Plethysmometer; type: functional; details: time <= 11 hrs
Rattus norvegicus [2] = experiment: Antiinflammatory activity in Wistar albino rat assessed as inhibition of CFA-induced paw edema at 10 mg/kg, po preadministered for 24 hrs followed by CFA administration and measured after 16 days; type: functional; details: 408 h, time 17 day
[3] = target: T1, Prostaglandin G/H synthase 2 (Homo sapiens, UniProt P35354); experiment: Inhibition of human recombinant COX-2 expressed in baculovirus infected Sf21 cells using arachidonic acid as substrate by spectrophotometric analysis
T1 sequence (P35354 whole entry): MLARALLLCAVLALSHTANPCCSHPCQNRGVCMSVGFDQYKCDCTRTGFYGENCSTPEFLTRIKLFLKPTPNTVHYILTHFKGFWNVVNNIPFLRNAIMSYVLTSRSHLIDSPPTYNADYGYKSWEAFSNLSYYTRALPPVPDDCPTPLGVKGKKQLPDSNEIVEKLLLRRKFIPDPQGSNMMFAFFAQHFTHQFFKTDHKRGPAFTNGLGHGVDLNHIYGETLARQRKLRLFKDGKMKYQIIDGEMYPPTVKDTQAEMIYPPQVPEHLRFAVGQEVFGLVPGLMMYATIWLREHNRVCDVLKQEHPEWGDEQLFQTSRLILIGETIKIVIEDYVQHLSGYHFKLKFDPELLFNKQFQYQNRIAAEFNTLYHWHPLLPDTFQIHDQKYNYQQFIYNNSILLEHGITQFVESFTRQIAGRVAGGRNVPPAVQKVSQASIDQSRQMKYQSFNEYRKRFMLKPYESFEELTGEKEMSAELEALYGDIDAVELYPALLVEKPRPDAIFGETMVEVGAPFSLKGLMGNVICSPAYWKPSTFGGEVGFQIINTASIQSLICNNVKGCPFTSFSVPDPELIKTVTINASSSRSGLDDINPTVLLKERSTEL

[4] = Inhibition of goat 5-LOX by spectrophotometric analysis; set-up: species or system Capra hircus

Compound: OC1CCN2Cc3ccccc3N=C12 (centres undefined)
inhibition in vivo at 20 mg/kg (Rattus norvegicus [1]): 59.5%

Compound: O=c1c2ccccc2nc2n1CCC2O (centres undefined)
inhibition in vivo at 10 mg/kg (Rattus norvegicus [2]): 63.9%

IC50 [3]: 2500 µM | IC50 [4]: 900 mg/L (≈ 2810 µM)
Compound: CC[C@H](CCCC[C@@H]1/C=C\CN/C=C\C1)C[C@@H]1CCC(=O)ON1
